“Also recorded” adds a separate entry of the source.
Columns and labels:
[1] = test system: mammary adenocarcinoma R3230AC tumors; assay: Tumor perfusion by Laser Doppler flowmetry; assay type: in vivo, rat; set-up: key to TUMOR perfusion: 0, unchanged; ↓, decreased; ↑, increased; conditions: for tumor blood flow (perfusion), flank tumors: normoxic rats
quadriceps muscle [2] = assay: Quadriceps muscle (systemic) perfusion by Laser Doppler flowmetry; assay type: in vivo, rat; set-up: key to SYSTEMIC perfusion: 0, unchanged; ↓, decreased; ↑, increased; conditions: for muscle blood flow (leg quadriceps): hyperoxia versus normoxia
Fischer 344 rats [3] = assay: Mean arterial pressure and heart rate; assay type: in vivo, rat; set-up: key to SYSTEMIC MAP / SYSTEMIC HR: 0, unchanged; ↓, decreased; ↑, increased
Procedure: Mean arterial pressure (MAP) and heart rate (HR) were measured with a blood pressure analyzer (Digi-Med, Micro-Med, Louisville, Ky., United States of America) connected to the femoral artery cannula as described in Dewhirst et al., 1996.

[4] = test system: baroreceptor and peripheral vasculature; assay: Summary of bioactivity of cell-free SNO-Hb and oxy-Hb (Table 3); assay type: in vivo, rat
tumor-feeding arterioles = assay: Diameter of tumor-feeding arterioles in window chambers; assay type: in vivo, rat; set-up: key to TUMOR vascular diameter: 0, unchanged; ↓, decreased; ↑, increased; conditions: for TUMOR vascular diameter: IV
From the text: For i.v. infusions, the femoral artery and vein were cannulated and drugs were infused through the venous cannula. For i.a. infusions, the femoral and left carotid arteries were cannulated and drugs were infused through the carotid cannula. For window chamber experiments, the two window frames were surgically positioned in the dorsal skin flap, followed by tumor cell transplantation to the chamber tissue, as described in Dewhirst et al., 1996. Following several days of tumor growth, direct visualization of tumor-feeding arterioles was performed using intravital microscopy. Tumor-feeding arterioles in window chambers were visualized using transillumination. Arteriolar diameters were measured from videotaped images using an image-shearing monitor (IPM Inc., San Diego, Calif., United States of America).

Fischer 344 rats [5] = assay: Blood gas and hemoglobin saturation measurements; assay type: in vivo, rat; conditions: breathing 100% O2
Procedure: Blood gases and Hb oxygen saturation were measured using a 1640 oximeter coupled to a 482 co-oximeter (Instrumentation Laboratories, Lexington, Mass., United States of America) from 0.5 ml samples of femoral arterial and venous blood. For tumor microvessels in window chambers, Hb saturation was calculated from transmission optical measurements of vascular absorbance using a hyperspectral imaging technique described in Sorg et al., 2005. A liquid crystal tunable filter (CRI, Inc., Woburn, Mass., United States of America) placed in front of a CCD camera (DVC Company, Austin, Tex., United States of America) was used for band-limited imaging.

[6] = test system: mammary adenocarcinoma R3230AC tumors; assay: Tumor pO2 during gas breathing; assay type: in vivo, rat
Procedure: (§1) Tumors were implanted in rats as described hereinabove, and the rats were set up to breathe either 100% O2, 100% O2 plus 100 parts per million ethyl nitrite (ENO), normal room air, or normal room air plus 100 ppm ENO. pO2 was monitored in the tumor or in quadriceps muscle from 30 minutes before the administration of the 100% O2/100% O2 plus 100 ppm ENO/room air/room air plus 100 ppm ENO, during 30 minutes of breathing of the gases, and for 30 minutes after the administered gas supply was removed.

quadriceps muscle [7] = assay: Quadriceps muscle pO2 during gas breathing; assay type: in vivo, rat
Procedure: as §1

[8] = test system: mammary adenocarcinoma R3230AC tumors; assay: Tumor growth delay after radiation; assay type: in vivo, rat; conditions: 100 ppm ENO plus 100% O2; 2 Gy daily on days 0-4; versus 100% O2, room air, non-irradiated
Procedure: Tumors were implanted in rats as described hereinabove, and the tumors were irradiated daily with 2 Gy of irradiation on days 0-4. Relative tumor volumes were determined daily from day 0 to day 18 in rats that breathed room air (N=4), 100% O2 (N=4), or 100 ppm ENO plus 100% O2. As a control, relative tumor volumes for rats that breathed room air (N=3) and were not treated with radiation. were also determined.

[9] = Hb tetramer/dimer dissociation; assay type: physicochemical; conditions: assuming plasma concentration of about 6.5 μmol/L, room air
From the text: Hb dissociation from tetramers to dimers depends on Hb concentration and oxygen tension, and NO release from dimers is unresponsive to allosteric effectors (e.g., O2). […] Is there enough tetrameric SNO-Hb to sense oxygen and regulate NO delivery? Evidently yes, as a finely tuned regulation of SNO-Hb bioactivity by oxygen tension (NO release depends on local pO2) that contrasted with the O2-independent behavior of oxy-Hb was observed. That the plasma half-life of SNO on Hb was more than doubled during hyperoxia while protein clearance remained unaffected was also observed.

[10] = cited from earlier work
[11] = IV, Room air, change versus before treatment
[12] = vascular pO2 at injection site any
[13] = 30 minutes breathing 100% O2 or 100% O2 plus 100 ppm ENO
[14] = 30 minutes breathing room air plus 100 ppm ENO
[15] = i.a. and i.v. infusion, control experiments
[16] = i.v. infusion, normoxic animals
[17] = vascular pO2 at injection site low

Molecule: oxyhemoglobin [oxy-Hb, reference compound]
- TUMOR perfusion ([1]; IV, 100% O2): ↓
- TUMOR perfusion [1, 11]: ↓
- tumor blood flow (perfusion), flank tumors ([1]; i.v. infusion): rapid and sustained decrease in tumor blood flow
- SYSTEMIC perfusion (quadriceps muscle [2]; IV, 100% O2): ↓
- SYSTEMIC perfusion (quadriceps muscle [2]; IV, Room air): ↓
- muscle blood flow (leg quadriceps) (quadriceps muscle [2]; i.v. infusion): hyperoxia did not modify the effect of oxy-Hb in muscles
- SYSTEMIC MAP (Fischer 344 rats [3]; IV, 100% O2): 0
- SYSTEMIC MAP (Fischer 344 rats [3]; IV, Room air): 0
- MAP (Fischer 344 rats [3]; i.v. infusion, normoxia or hyperoxia): no effect on MAP
- HR (Fischer 344 rats [3]; i.v. infusion, from 5 minutes after infusion, more severe in hyperoxic than in normoxic rats): induced bradycardia
- Baroreceptor effect [4, 12]: none
- Peripheral effect [4, 12]: vasoconstriction

Molecule: O=O [100% O2]
- effects of hyperoxia alone on tumor and muscle perfusion ([1]; 100% O2 alone, before drug infusion): transient decrease that resumed within 5 minutes (i.e., before drug infusion) to no change
- diameter of tumor feeding arterioles (tumor-feeding arterioles; hyperoxia alone, t=-5 to t=0): no vascular effect
- change in HR (Fischer 344 rats [3]; hyperoxia alone, N=19): −3%
- change in MAP (Fischer 344 rats [3]; hyperoxia alone, N=19): +1%
- Femoral artery HbO2 (Fischer 344 rats [5]): 98.2 ± 0.1 %
- Femoral artery pCO2 (Fischer 344 rats [5]): 56.9 ± 1.7 mm Hg
- Femoral artery pO2 (Fischer 344 rats [5]): 435.5 ± 34.7 mm Hg
- Femoral vein HbO2 (Fischer 344 rats [5]): 75.8 ± 3.4 %
- Femoral vein pCO2 (Fischer 344 rats [5]): 72.0 ± 2.1 mm Hg
- Femoral vein pO2 (Fischer 344 rats [5]): 69.8 ± 3.0 mm Hg
- Tumor artery HbO2 (Fischer 344 rats [5]; window chamber): 89 ± 2 %
- Tumor vein HbO2 (Fischer 344 rats [5]; window chamber): 78 ± 3 %
- pO2 in tumors [6, 13]: insufficient to raise the pO2 to above 10 mm Hg
- pO2 in quadriceps muscle (quadriceps muscle [7]; [13]): increased rapidly

Molecule: CCON=O [ENO, ethyl nitrite]
- pO2 in tumors [6, 13]: above 10 mm Hg
- pO2 in tumors [6, 14]: remained largely unchanged
- pO2 in quadriceps muscle (quadriceps muscle [7]; [13]): increased rapidly
- pO2 in quadriceps muscle (quadriceps muscle [7]; [14]): this effect was not seen
- growth of irradiated tumors (relative tumor volume) [8]: grew more slowly

Molecule: albumin [reference compound]
- TUMOR perfusion [1, 15]: did not induce any significant or differential change
- HR (Fischer 344 rats [3]; [15]): did not induce any significant or differential change
- MAP (Fischer 344 rats [3]; [15]): did not induce any significant or differential change

Molecule: S-nitrosohemoglobin [SNO-Hb]
- TUMOR perfusion ([1]; IA, 100% O2): 0
- TUMOR perfusion ([1]; IA, Room air): 0
- TUMOR perfusion ([1]; IV, 100% O2): 0
- TUMOR perfusion [1, 11]: ↓*
- pressor activity (tumor perfusion) ([1]; i.a. infusion, hyperoxic rats versus i.a. room air): not altered
- decrease in tumor perfusion ([1]; i.a. infusion, normoxic animals, compared to i.v.): not significantly different compared to i.v. infusion
- tumor perfusion, flank tumors ([1]; i.v. infusion, 100% O2 (hyperoxia) versus room air): hyperoxia abolished the reduction in tumor perfusion
- tumor perfusion, window chamber tumors ([1]; i.v. infusion, hyperoxic rats): this decrease was prevented
- tumor perfusion, window chamber tumors [1, 16]: potent decrease in tumor perfusion
- tumor blood flow (perfusion), flank tumors ([1]; i.v. infusion): reduced perfusion
- SYSTEMIC perfusion (quadriceps muscle [2]; IA, 100% O2): 0
- SYSTEMIC perfusion (quadriceps muscle [2]; IA, Room air): 0
- SYSTEMIC perfusion (quadriceps muscle [2]; IV, 100% O2): 0
- SYSTEMIC perfusion (quadriceps muscle [2]; IV, Room air): ↓
- muscle blood flow (quadriceps) (quadriceps muscle [2]; i.a. infusion, independently of O2 delivery): remained unaltered
- muscle blood flow (leg quadriceps) (quadriceps muscle [2]; i.v. infusion): prevented under hyperoxia
- muscle perfusion in the quadriceps (quadriceps muscle [2]; i.v. infusion, rats breathing room air (normoxia)): decreased muscle perfusion more than Hb; also recorded: decrease in muscle blood flow
- TUMOR vascular diameter (tumor-feeding arterioles; 100% O2): 0
- TUMOR vascular diameter (tumor-feeding arterioles; Room air): 0
- diameter of tumor feeding arterioles (tumor-feeding arterioles; i.v. infusion, normoxic or hyperoxic rats, window chamber): no significant change
- SYSTEMIC HR (Fischer 344 rats [3]; IA, 100% O2): 0
- SYSTEMIC MAP (Fischer 344 rats [3]; IA, 100% O2): ↑
- SYSTEMIC HR (Fischer 344 rats [3]; IA, Room air): 0
- SYSTEMIC MAP (Fischer 344 rats [3]; IA, Room air): ↑
- SYSTEMIC HR (Fischer 344 rats [3]; IV, 100% O2): 0
- SYSTEMIC MAP (Fischer 344 rats [3]; IV, 100% O2): ↑
- SYSTEMIC HR (Fischer 344 rats [3]; IV, Room air): 0
- SYSTEMIC MAP (Fischer 344 rats [3]; IV, Room air): 0
- HR (Fischer 344 rats [3]; i.a. infusion, normoxic and hyperoxic): remained unchanged
- MAP (Fischer 344 rats [3]; i.a. infusion, from 5 minutes (normoxic) and 10 minutes (hyperoxic)): significant increase in MAP
- HR (Fischer 344 rats [3]; i.v. infusion, hyperoxia): no significant effect on HR
- MAP (Fischer 344 rats [3]; i.v. infusion, hyperoxia, from 10 minutes after infusion): significant increase in the MAP
- HR (Fischer 344 rats [3]; [16]): No change
- MAP (Fischer 344 rats [3]; [16]): No change
- Baroreceptor effect ([4]; vascular pO2 at injection site high): inhibition
- Peripheral effect ([4]; vascular pO2 at injection site high, dose-dependent effect): vasodilation
- Baroreceptor effect [4, 17]: none
- Peripheral effect [4, 17]: vasoconstriction
- fraction present as tetramers [9]: about 35%
- KD (tetramer/dimer), R conformer ([10]; R conformer): 3000 nM
- KD (tetramer/dimer), T conformer ([10]; T conformer): 3 nM

Molecule: SNO-albumin: bovine serum albumin reacted with NaNO2 (S-nitrosylated albumin) [reference compound]
- tumor blood flow (perfusion), flank tumors ([1]; i.v. infusion): small increase in tumor perfusion
